Data: patent publication US8975259B2, “Compositions and methods for inhibiting G protein signaling” (University of Rochester, priority 2007, dated 2015)
Read-outs that look alike come from different tables or passages of the source.

Biological target: Gβ1γ2 (UniProt P54311+P63212)
Assay: Competition phage ELISA: inhibition of SIGK-phage binding to immobilized biotinylated Gβ1γ2
Parameters: made in house; host or cells: Sf9 insect cells (baculovirus; co-expressed with BirA and (His)6-Gαi1, from which βγ was eluted); species or system rat
Conditions: for binding to the G protein β subunit: result in words
Experimental: Phage ELISA assays used to assess peptide binding to wild-type and mutant b-βγ were performed according to standard methods (Smrcka and Scott (2002) Methods Enzymol. 344:557-76). Briefly, 1 μg streptavidin was immobilized in the well of a […] overnight at 4° C. The wells were blocked with 100 μL of 2% bovine serum albumin (BSA) in Tris-buffered saline (TBS) for 1 hour at 4° C. followed by three washes of IX TBS/0.5% TWEEN®. […] The wells were washed, followed by the addition of IxIO^6 to IxIO^10 phage particles and incubated at 4° C. for 3 hours. The wells were then washed six times with TBS/0.5% TWEEN® followed by addition of 40 μL of 1:5000 dilution of anti-M13 antibody (Pharmacia, Uppsala, Sweden) and incubated at room temperature for 1 hour. The wells were washed, followed by the addition of 40 μL of (2,2′-Azino-bis (3-ethylbenzthiazoline)-6-sulfonic acid (ABTS) and the colorimetric reaction was monitored at 405 nm. Nonspecific binding was subtracted for each reading.
A phage ELISA assay was used to determine whether small molecules identified in the computational screen could interact with the Gβy protein interaction surface. […] The screen was based on a reduction in the optical density (OD) of wells containing Gβγ subunits and phage. […] Three background wells contained no βy subunits.
As disclosed herein, biotinylated Gβy subunits were immobilized on the surface of a 96-well plate coated with streptavidin, phage displaying Gβγ-binding peptides were subsequently added and binding in the presence and absence of test compounds detected with an anti-phage antibody.
The phage ELISA assay was used to rapidly screen the ability of compounds to bind to the protein interaction “hot spot” based on the method of Scott et. al (Scott et al., 2001). This assay is performed in the presence of detergent (0.5% Tween) to eliminate non-specific compound aggregation artifacts.
Compounds/DMSO and 0.1×10^10 phage were added simultaneously and subsequently incubated for 1 h at room temperature. Plates were then washed with 1× Tris-buffered saline/0.5% Tween 20 and incubated with anti-M13, HRP-conjugated antibody (Amersham, Chalfont St. Giles, Buckinghamshire, UK). Phage binding was determined by monitoring A405 upon addition of 2,2′-azino-bis(3-ethylbenzothiazoline-6-sulfonic acid) (Sigma Aldrich).

[1] = kind of constant not stated, read-out: binding to the G protein β subunit

**Q.** With `CNc1ccc(Nc2cc(S(=O)(=O)O)c(N)c3c2C(=O)c2ccccc2C3=O)cc1` as the compound, how does the IC50 (Table 2, read-out: Elisa IC50) read?
**A.** The IC50 was 59 µM.

**Q.** `CC1C2C=CC1C(c1c3ccc(=O)c(O)c-3oc3c(O)c(O)ccc13)C2C(=O)O` (stereo not drawn) was tested. Which IC50 (Table 6) did it give?
**A.** Its IC50 is 0.7 µM.

**Q.** Which IC50 (Table 6) does the source give for `O=C(O)C1CC23C(Cl)C(Cl)C(Cl)C(Cl)C2(CC1c1c2ccc(=O)c(O)c-2oc2c(O)c(O)ccc12)C3(Cl)Cl` (stereo not drawn) here?
**A.** Its IC50 is 0.2 µM.

**Q.** With `O=C(O)c1ccccc1-c1c2ccc(=O)c(O)c-2oc2c(O)c(O)ccc12` as the compound, how does the IC50 (Table 6) read?
**A.** The IC50 was 0.2 µM.

**Q.** How did the IC50 (Table 6) turn out when `O=C1C=CC2C(=C1O)Oc1c(ccc(O)c1O)/C2=C\C=C(O)O` (stereo not drawn) was run?
**A.** The IC50 was 0.2 µM.

**Q.** How did the IC50 (Table 7, read-out: ELISA IC50) turn out when `Cc1cc(N)c2cc(CC(=O)C(C)(C)C(=O)Nc3ccc4nc(C)cc(N)c4c3)ccc2n1` was run?
**A.** Its IC50 is 74 µM.

**Q.** For `Ic1ccc2c(c1)N(c1ccccc1)c1cc(Nc3ccc4c(c3)N(c3ccccc3)c3cc(I)ccc3N4)ccc1N2`, which IC50 (Table 7, read-out: ELISA IC50) is on record?
**A.** The IC50 was 2 µM.

**Q.** “7-methyl-3-(4,5,6-trihydroxy-3-oxo-3H-xanthen-9-yl)bicyclo[2.2.1]hept-5-ene-2-carboxylic acid” was tested. Which IC50 (kind of constant not stated, read-out: binding to the protein interaction site of the β subunit of a G protein) did it give?
**A.** Its IC50 is 0.7 µM.

**Q.** For `Cc1c2cc(O)c(=O)cc-2oc2cc(O)c(O)cc12` [2,6,7-trihydroxy-9-methyl-3H-xanthen-3-one], which “binding to the G protein β subunit” value is on record?
**A.** Its value is “did not provide a compound that exhibited binding”.

**Q.** With `O=C(O)CCc1c2ccc(=O)c(O)c-2oc2c(O)c(O)ccc12` [3-(4,5,6-trihydroxy-3-oxo-3H-xanthen-9-ylpropanoic acid] as the compound, how does the IC50 [1] read?
**A.** Its IC50 is 2.5 µM.

**Q.** With `O=C(O)CCc1c2ccc(=O)cc-2oc2cc(O)ccc12` [3-(6-hydroxy-3-oxo-3H-xanthen-9-yl)propionic acid] as the compound, how does the “binding to the G protein β subunit” value read?
**A.** Its value is “Neither of these compounds showed any binding”.

**Q.** With `O=C(O)C1C2C=CC(C2)C1c1c2ccc(=O)cc-2oc2cc(O)ccc12` (stereo not drawn) [3-(6-hydroxy-3-oxo-3H-xanthen-9yl)bicyclo[2.2.1]hept-5-ene-2-carboxylic acid] as the compound, how does the IC50 [1] read?
**A.** Its IC50 is 14 µM.
